Measurements reported in patent US8791132B2, “Compounds and methods for treatment of hypertension” (Medivation Technologies, Inc., priority 2011, dated 2014).
Values joined by “and” are separate entries in the source; they are usually repeats but may differ in a detail not shown here. Identical values can stand only once.

Columns and labels:
[1] = biological target: T1, human recombinant adrenergic α2A receptor (Homo sapiens, UniProt P08913); assay: Radioligand binding, adrenergic α2A ([3H]MK-912); details: for Percentage inhibition of ligand binding, Adrenergic α2A (0.1 μM): compound at 0.1 μM; for Percentage inhibition of ligand binding, Adrenergic α2A (0.1 μM) / inhibition at 0.1 µM / inhibition at 0.03 µM: [3H]MK-912, repeat datapoints each shown; for inhibition at 0.1 µM: read-out: Percentage inhibition of ligand binding, Adrenergic α2A (0.1 μM), compound at 0.1 μM; for inhibition at 0.03 µM: read-out: Percentage inhibition of ligand binding, Adrenergic α2A (0.03 μM), compound at 0.03 μM
T1 construct: expressed in transfected cells; host or cells: insect Sf9 cells
T1 sequence (P08913 1-465): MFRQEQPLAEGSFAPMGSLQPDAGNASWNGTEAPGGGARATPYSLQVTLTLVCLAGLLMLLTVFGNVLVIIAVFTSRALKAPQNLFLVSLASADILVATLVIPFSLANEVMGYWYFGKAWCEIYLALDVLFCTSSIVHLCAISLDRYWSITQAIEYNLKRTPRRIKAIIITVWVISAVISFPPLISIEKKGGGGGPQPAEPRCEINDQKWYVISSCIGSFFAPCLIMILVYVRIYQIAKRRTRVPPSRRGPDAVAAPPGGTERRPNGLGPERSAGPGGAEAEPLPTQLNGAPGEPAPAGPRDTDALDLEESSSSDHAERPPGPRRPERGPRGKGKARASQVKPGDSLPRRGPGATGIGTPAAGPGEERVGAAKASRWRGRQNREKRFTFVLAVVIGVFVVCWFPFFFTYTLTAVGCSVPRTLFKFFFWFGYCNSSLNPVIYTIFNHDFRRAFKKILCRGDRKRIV
Method in brief: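 Receptor expressed in Sf9 cells, in 50 mM Tris-HCl pH 7.4, 12.5 mM MgCl2, 2 mM EDTA; compounds incubated with 1 nM [3H]MK-912 for 60 min at 25 °C.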

[2] = biological target: T2, human recombinant adrenergic α2B receptor (Homo sapiens, UniProt P18089); assay: Radioligand binding, adrenergic α2B ([3H]Rauwolscine); details: for Percentage inhibition of ligand binding, Adrenergic α2B (0.03 μM): compound at 0.03 μM; for Percentage inhibition of ligand binding, Adrenergic α2B (0.03 μM) / inhibition at 0.1 µM / inhibition at 0.03 µM: [3H]Rauwolscine, repeat datapoints each shown; for Ki: read-out: Ki α2B; for inhibition at 0.1 µM: read-out: Percentage inhibition of ligand binding, Adrenergic α2B (0.1 μM), compound at 0.1 μM; for inhibition at 0.03 µM: read-out: Percentage inhibition of ligand binding, Adrenergic α2B (0.03 μM), compound at 0.03 μM
T2 construct: expressed in transfected cells; host or cells: CHO-K1
T2 sequence (P18089 1-450): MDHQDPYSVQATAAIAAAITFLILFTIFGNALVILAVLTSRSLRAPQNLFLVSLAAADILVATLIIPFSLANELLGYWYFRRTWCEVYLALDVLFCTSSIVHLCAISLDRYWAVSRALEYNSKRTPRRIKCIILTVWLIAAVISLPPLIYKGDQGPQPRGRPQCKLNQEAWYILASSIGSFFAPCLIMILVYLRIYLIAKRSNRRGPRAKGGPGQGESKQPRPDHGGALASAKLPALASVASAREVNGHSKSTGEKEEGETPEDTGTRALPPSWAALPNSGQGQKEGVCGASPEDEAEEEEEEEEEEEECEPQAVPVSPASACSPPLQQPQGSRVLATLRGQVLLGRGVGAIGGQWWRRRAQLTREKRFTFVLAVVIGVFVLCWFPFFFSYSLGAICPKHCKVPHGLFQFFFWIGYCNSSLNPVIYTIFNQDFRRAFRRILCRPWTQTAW
Method in brief: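 Assay used CHO-K1-expressed human α2B receptor in Tris-HCl pH 7.4 buffer with MgCl2, EDTA and BSA; 60 min incubation at 25 °C.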

[3] = biological target: T3, rat adrenergic α1B receptor (Rattus norvegicus, UniProt P15823); assay: Radioligand binding, adrenergic α1B ([3H]Prazosin); details: for inhibition at 0.1 µM: read-out: Percentage inhibition of ligand binding, Adrenergic α1B (0.1 μM), compound at 0.1 μM; for inhibition at 0.1 µM / Percentage inhibition of ligand binding, Adrenergic α1B (0.1 μM) / inhibition at 0.03 µM: [3H]Prazosin, repeat datapoints each shown; for Percentage inhibition of ligand binding, Adrenergic α1B (0.1 μM): compound at 0.1 μM; for inhibition at 0.03 µM: read-out: Percentage inhibition of ligand binding, Adrenergic α1B (0.03 μM), compound at 0.03 μM
T3 construct: rat adrenergic α1B receptor obtained from Wistar Rat liver; from tissue; host or cells: Wistar rat liver
T3 sequence (P15823 1-515): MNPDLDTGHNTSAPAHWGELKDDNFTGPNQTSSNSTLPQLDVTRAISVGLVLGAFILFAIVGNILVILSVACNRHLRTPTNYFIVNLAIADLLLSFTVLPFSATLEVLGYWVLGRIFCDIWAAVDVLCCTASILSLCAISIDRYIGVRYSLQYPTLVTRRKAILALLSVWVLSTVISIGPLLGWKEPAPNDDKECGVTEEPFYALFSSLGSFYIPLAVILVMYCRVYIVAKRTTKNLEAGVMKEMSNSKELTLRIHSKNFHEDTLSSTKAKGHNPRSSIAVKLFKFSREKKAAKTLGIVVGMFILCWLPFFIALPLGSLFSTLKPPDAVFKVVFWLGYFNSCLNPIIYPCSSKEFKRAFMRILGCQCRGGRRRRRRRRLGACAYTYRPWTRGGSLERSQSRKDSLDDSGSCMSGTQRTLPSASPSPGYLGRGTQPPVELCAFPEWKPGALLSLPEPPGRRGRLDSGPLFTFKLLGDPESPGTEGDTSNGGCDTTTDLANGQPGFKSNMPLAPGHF
Method in brief: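 Specific binding, taken as total minus that remaining with 10 μM phentolamine, is measured after filtration and counting. Rat liver receptor preparation and 0.25 nM [3H]prazosin are incubated with compound in 50 mM Tris-HCl (pH 7.4, 0.5 mM EDTA) at 25° C for 60 min. Activity is reported as percent inhibition.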

| Percentage inhibition of ligand binding, Adrenergic α2A (0.1 μM) ([1]; 0.1 µM) | Percentage inhibition of ligand binding, Adrenergic α2B (0.03 μM) ([2]; 0.03 µM) | inhibition at 0.1 µM [3] | Percentage inhibition of ligand binding, Adrenergic α1B (0.1 μM) ([3]; 0.1 µM) | SMILES | further results |
| --- | --- | --- | --- | --- | --- |
| 15% | 61% and 68% | 5% |  | CN1CCc2c(c3ccccc3n2CC(C)(O)c2cccnc2)C1 (single isomer, unassigned) [173a] | Ki [2]: 8.77 nM; inhibition at 0.1 µM [2]: 82% |
| −2% | 28% |  | 8% | CN1CCc2c(c3ccccc3n2CC(C)(O)c2cccnc2)C1 (single isomer, unassigned) [173b] |  |
| 22% | 62% and 71% | 13% |  | CN1CCc2c(c3cc(C(F)(F)F)ccc3n2CC(C)(O)c2cccnc2)C1 (single isomer, unassigned) [174a] | Ki [2]: 7.91 nM; inhibition at 0.1 µM [2]: 86% |
| 6% | 15% |  | 11% | CN1CCc2c(c3cc(C(F)(F)F)ccc3n2CC(C)(O)c2cccnc2)C1 (single isomer, unassigned) [174b] |  |
|  | 69% and 73% |  | 11% | CC(O)(Cn1c2c(c3cc(Cl)ccc31)CNCC2)c1cccnc1 (single isomer, unassigned) [175a] | inhibition at 0.1 µM [1]: 11%; Ki [2]: 4.42 nM; inhibition at 0.1 µM [2]: 90% |
| 7% | 4% |  | 4% | CC(O)(Cn1c2c(c3cc(Cl)ccc31)CNCC2)c1cccnc1 (single isomer, unassigned) [175b] |  |
| 12% | 67% |  | 41% | Cc1ccc2c(c1)c1c(n2CC(C)(O)c2cnccn2)CCN2CCCC12 (single isomer, unassigned) [176b] |  |
| 97% |  | 93% |  | Cc1ccc(C(O)Cn2c3c(c4cc(C)ccc42)CN(C)CC3)cc1 (single isomer, unassigned) [183b, 2-(1,2,3,4-tetrahydro-2,8-dimethylpyrido[4,3-b]indol-5-yl)-1-p-tolylethanol] | Ki [1]: 2.72 nM; inhibition at 0.03 µM [1]: 84%; inhibition at 0.1 µM [1]: 93%; inhibition at 0.03 µM [2]: 98% |
|  |  | 91% |  | C/C(=C\n1c2c(c3cc(C)ccc31)C1CCCN1CC2)c1ccc(C)nc1 (single isomer, unassigned) [193b, 10-methyl-7-(2-(6-methylpyridin-3-yl)prop-1-enyl)-2,3,5,6,7,11c-hexahydro-1H-indolizino[7,8-b]indole] | inhibition at 0.1 µM [1]: 83%; inhibition at 0.03 µM [2]: 104% |
|  |  | 100% |  | C/C(=C\n1c2c(c3cc(C)ccc31)C1CCCN1CC2)c1ccc(F)cc1 (single isomer, unassigned) [194b, 7-(2-(4-fluorophenyl)prop-1-enyl)-10-methyl-2,3,5,6,7,11c-hexahydro-1H-indolizino[7,8-b]indole] | inhibition at 0.1 µM [1]: 94%; inhibition at 0.03 µM [2]: 103% |
| 71% | 103% | 54.6% |  | Cc1ccc2c(c1)c1c(n2CC(C)(O)c2ccc(C)nc2)CN(C)CC1 (single isomer, unassigned) [196a] | Ki [1]: 16.8 nM; inhibition at 0.03 µM [1]: 37%; inhibition at 0.1 µM [1]: 58%; Ki [2]: 1.83 nM; inhibition at 0.03 µM [2]: 93%; inhibition at 0.03 µM [3]: 30% |
| 56% and 77% | 105% | 96% |  | Cc1ccc2c(c1)c1c(n2CCc2ccc(C)nc2)CCN2CCCC12 (single isomer, unassigned) [197b, 9-methyl-6-[2-(6-methyl-pyridin-3-yl)-ethyl]-2,3,4,5,6,10c-hexahydro-1H-3a, 6-diaza-cyclopenta[c]fluorene] | Ki [1]: 11.9 nM; inhibition at 0.03 µM [1]: 50%; Ki [2]: 0.78 nM; inhibition at 0.03 µM [2]: 101%; inhibition at 0.03 µM [3]: 89% |
| 10% | 47% |  | 24% | Cc1ccc2c(c1)c1c(n2CC(O)c2ccc(C)nc2)CCN2CCCC12 (single isomer, unassigned) [198a, 2-(9-methyl-1,2,3,4,5,10c-hexahydro-3a,6-diaza-cyclopenta[c]fluoren-6-yl)-1-(6-methyl-pyridin-3-yl)-ethanol] |  |
| 44% | 103% |  | 84% | Cc1ccc2c(c1)c1c(n2CC(O)c2ccc(C)nc2)CCN2CCCC12 (single isomer, unassigned) [198b, 2-(9-methyl-1,2,3,4,5,10c-hexahydro-3a,6-diaza-cyclopenta[c]fluoren-6-yl)-1-(6-methyl-pyridin-3-yl)-ethanol] |  |
| 71% | 36% |  | 76% | CCN1CCc2c(c3cc(C)ccc3n2CC(O)c2ccc(C)cc2)C1 (single isomer, unassigned) [203a] |  |
| 31% | 24% |  | 47% | CCN1CCc2c(c3cc(C)ccc3n2CC(O)c2ccc(C)cc2)C1 (single isomer, unassigned) [203b] |  |
|  |  |  |  | CC(=O)NC(Cn1c2c(c3cc(C)ccc31)CN(C)CC2)c1ccncc1 (single isomer, unassigned) [II-1a, N-(2-(1,2,3,4-tetrahydro-2,8-dimethylpyrido[4,3-b]indol-5-yl)-1-(pyridin-4-yl)ethyl)acetamide] | Percentage inhibition of ligand binding, Adrenergic α2A ([1]; 0.1 μM compound, 0.1 µM): 15%; Percentage inhibition of ligand binding, Adrenergic α2B ([2]; 0.03 μM compound, 0.03 µM): 14%; Percentage inhibition of ligand binding, Adrenergic α1B ([3]; 0.1 μM compound, 0.1 µM): 6% |
